Data published in publication PMC11788822, “Uncovering the potent antimicrobial activity of squaramide based anionophores – chloride transport and membrane disruption” (Chemical Science, 2025).

Key:
[1] = 1H NMR titration with TBACl, Cl− binding; settings: association constant towards Cl−, compound 2.5 mM, 95% DMSO-d6, 1:1 binding model (Bindfit), errors below 10%
Experimental: To verify if 1–6 formed host–guest complexes with Cl^− in solution, ^1H NMR titrations of each compound (2.5 mM) with TBACl were carried out in DMSO-d6. Increasing equivalents of Cl^− were incrementally added, with spectral information obtained upon addition of each molar equivalent of Cl^−. […] Taking 1 as an example (Fig. 2), upon addition of sequential aliquots of Cl^− there is a clear downfield shift of both squaramide NHs, with minor contributions to the binding cleft derived from the ortho-aryl protons of the aniline of 1. The binding data from each titration was fitted to a 1 : 1 binding model using the Bindfit[36] open access software, and the results are tabulated below (Table 1), alongside the respective Hammett constant for the relevant substitution pattern.[37] […] This aligns with previously reported receptors,[38] where compounds containing CF3 substituents in particular are known to have increased anion binding affinity as well as transport ability.[39]

G. mellonella larvae = test: Galleria mellonella in vivo toxicity; settings: larvae dosed at 10× IC50, monitored over 72 h
Experimental: Next, to assess the medicinal validity of compounds 1, 2, and 4 we investigated the in vivo toxicity of these compounds using the Galleria mellonella model organism. This model has been introduced as an alternative model to study microbial infections as it can be easily and inexpensively obtained and doesn't require specialised lab equipment or impose significant ethical constraints. […] Thus, G. mellonella larvae were dosed with a concentration of each compound at 10× IC50 and monitored for signs of toxicity or death over a 72 hour window.
Bacterial cultures were brought to early stationary phase overnight, in nutrient broth (containing 25/50 µg/mL Ampicillin for MRSA/K. pneumoniae, respectively) at 37 °C. Cultures were diluted to an OD600 = 0.01. Aliquots of Culture (100 µl) were added to 100 µL serially diluted compound (200 – 0.78 µM) in nutrient broth in a 96-well plate (Sarstedt, Germany).
Plates were incubated at 37 °C for 24 h and growth was measured at 600 nm, where growth was measured and represented relative to control.
Galleria mellonella toxicity studies
To ascertain inherent compound toxicity, 10 healthy G. mellonella larvae were selected and weighed ensuring to keep larval weight approx. 0.25 g (+ 0.05 g). This constituted one sample set for experiments. […] Larvae were subsequently monitored for up to […], for signs of toxicity, melanisation and death. […]
From an overnight culture brought to stationary phase (OD600 = ~1.0) was taken samples, brought to an OD600 = 0.2, which were treated with N-Ethoxycarbonylmethyl-6-methoxyquinolium Bromide (MQAE) (10 mM) for 1 h at 37 0C. […] 2 mL of samples were taken & transferred to a fluorescence cuvette, whereupon fluorescence was read (λexc = 350 nm (slit width = 5 nm) λem = 460 nm (slit width = 5 nm)) using a Cary Eclipse Fluorescence Spectrophotometer (Agilent Technologies). Subsequently samples were treated with the Compound of interest for 5 mins whereafter fluorescence was measured as previous, with intensity plotted relative to control, […]

S. aureus = test: DNA release luminescence assay with Ru(phen)2(dppz)Cl2; type: cell-based, Staphylococcus aureus; settings: 100 μM, 1 h, vs untreated control
Experimental: In addition to assays monitoring the uptake of PI, luminescence assays to monitor the release of cellular components such as DNA/RNA were also undertaken. Using Ru(phen)2(dppz)Cl2, which acts as a highly sensitive, “off-to-on” emissive probe for nucleic acids (NA),[49–51] we assessed the levels of NA release from cells upon treatment with 1, 2, and 4 (100 μM) by comparing emission intensity of the complex in the absence of nucleic acids, to untreated controls, and treated samples (Fig. 4C). When Ru(phen)2(dppz)Cl2 was added to sterile nutrient broth, which lacks nucleic acids, emission from the ^3MLCT band (ca. 620 nm) is highly quenched, however, when added to culture supernatant in the absence of treatment with 1, 2, or 4 we see a large increase in ^3MLCT derived luminescence indicating the presence of nucleic acids in the solution. This initial luminescence increase is unsurprising, as S. aureus is known to release DNA under active growth conditions, in the form of eDNA,[52] which acts as a chemical messenger for microbial species.[53] […] This additional increase in luminescence indicates a heightened level of extracellular NA and may be another indication of membrane disruption. […] Indeed, a significant increase in luminescence would not be expected, as the release of large architectures such as those observed for nucleic acids is slow, due to the bulk of the biomolecules.
1 mL aliquots of S. aureus cultures brought to early stationary phase overnight were brought to an OD600 = 0.2 and 100 µL of this suspension was added to 96 well plates, whereafter 100 µL of PBS containing; no compound (- control), or compound (2x desired concentration) was added to the suspension. The resultant mixture was incubated at 37 °C for 2 hr whereafter fluorescence intensity from PI (DNA bound form) was quanitified (λ exc/em = 535/615 nm) using a Clariostar plate reader. In the case of time course experiments, Measurement cycles were set for two hours, following addition of the respective compound (T0). Fluorescence was subsequently plotted as F/F0.
DNA release luminescence assay […]

[2] = design: method as in doi:10.1021/jo01097a026; settings: for the relevant substitution pattern; cited from earlier work

SMILES	K a [1] [M⁻¹]	signs of toxicity or death (G. mellonella larvae)	Ru(phen)2(dppz)Cl2 luminescence in culture supernatant (nucleic acid release) (S. aureus)	Hammett parameter (σ) [2]
O=c1c(Nc2cc(C(F)(F)F)cc(C(F)(F)F)c2)c(NC23CC4CC(CC(C4)C2)C3)c1=O [Compound 1]	235	no appreciable signs of acute/chronic toxicity	further increased	0.86
O=c1c(Nc2ccc(Cl)c(Cl)c2)c(NC23CC4CC(CC(C4)C2)C3)c1=O [Compound 2]	263	no appreciable signs of acute/chronic toxicity	further increased	0.6
O=c1c(Nc2ccc([N+](=O)[O-])cc2)c(NC23CC4CC(CC(C4)C2)C3)c1=O [Compound 4]	202	no appreciable signs of acute/chronic toxicity	further increased	0.78
